Read-outs that look alike come from different tables or passages of the source.
Key:
[1] = test system: Methylmalonic Acidemia (MMA) primary fibroblasts Tsi 5224; experiment: Mitochondrial respiration, XFe96 Extracellular Flux Analyzer (OCR/ECAR), MMA fibroblasts Tsi 5224; assay type: cell-based; conditions: Homo sapiens, Fibroblast;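 on Increase in Maximal Respiratory Capacity AUC: relative to vehicle DMSO control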
Method: The effect of the compounds of the present disclosure on mitochondrial respiration was measured with a XFe96 Extracellular Flux Analyzer (Seahorse Bioscience, Agilent Technologies) and Oxygen consumption Rate (OCR) and Extracellular acidification rate (ECAR) determined.
Cell culture and treatments. Primary adherent fibroblasts were cultured in minimum essential medium (MEM) (Gibco, 25030081) supplemented with 2 mM L-Glutamine (Gibco, 25030081), 15% fetal bovine serum (FBS) (Gibco, 26400044) and 1% penicillin/streptomycin (Gibco, 5140122) at 37° C. and 5% CO2. Cells were collected for either passaging or experiment at ˜70-80% confluence. Cells were obtained by trypsinization and seeded at 20000 cells/well in cell culture microplates (Seahorse Bioscience, 101085-004) and allowed to adhere for 16 hours in culture media.
By profiling different primary cells and/or optimizing their culture media or environmental components one can select cell lines and/or conditions that are appropriate for the biological or disease model. In the present example, 24 hours prior to OCR and ECAR profiling, media was changed to Dulbecco's Modified Eagle Medium (DMEM, Agilent Seahorse 103575-100) with the appropriate supplements for the different primary cells (10 mM glucose, 2 mM L-glutamine, 1 mM pyruvate, 10% FBS; 1 mM glucose, 2 mM L-glutamine, 1 mM pyruvate, 10% FBS; 10 mM glucose, 10% FBS; 5 mM glucose 10% FBS; 1 mM glucose 10% FBS). Cells used in this example were: Propionic Acidemia (PA) (GM00371, GM03590 Coriell Institute for Medical Research, Tsi 6337, Tsi 4626, Tsi 3618 Trans-Hit Bio), Methylmalonic Acidemia (MMA) (GM01673, Coriell Institute for Medical Research, Tsi 5224 Trans-Hit Bio), Branched chain ketoacid dehydrogenase kinase (BCKDK) (GM00612, GM00649 Coriell Institute for Medical Research), Subnormal activation of pyruvate dehydrogenase complex (PDH) (GM01503 Coriell Institute for Medical Research), Very long-chain acyl-CoA dehydrogenase (VLCAD) (GM17475), Leigh Syndrome (LS) (GM03672, GM13411 Coriell Institute for Medical Research), Pyruvate Carboxylase Deficiency (PC) (GM00444 Coriell Institute for Medical Research), Glutaric Acidemia-I (GA) (GM10653), Friedreich's Ataxia (FXN) (GM04078 Coriell Institute for Medical Research, Huntington's disease (HD) (GM21756 Coriell Institute for Medical Research), Ornithine Transcarbamylase Deficiency (OTC) (GM12756 Coriell Institute for Medical Research), Kearns-Sayre Syndrome (KSS) (GM06225 Coriell Institute for Medical Research).
One hour before the assay, the cells were washed with freshly prepared unbuffered serum free-Seahorse XF Assay medium (Seahorse Bioscience, North America, USA, 103575-100) with the same supplements as for the previous 24 hour incubation.
After baseline measurements of OCR, cells were challenged with compounds of the present disclosure at different concentrations (10 to 50 μM) or vehicle (DMSO, 0.1%) and a post-compound baseline was recorded. OCR was measured after sequentially adding to each well 1 μg/ml oligomycin (inhibitor of ATP synthase Sigma-Aldrich, 753531), then maximal OCR was determined with carbonyl cyanide 4-(trifluoromethoxy) phenylhydrazone (FCCP, Sigma-Aldrich, C2920), (uncoupler of oxidative phosphorylation) and 0.5 μM of rotenone (Sigma-Aldrich, R8875) plus antimycin A (Sigma-Aldrich, A8674) (inhibitors of mitochondrial complex I and III) for determination of rotenone-antimycin insensitive respiration together with Hoechst for nuclear staining in situ when normalized to cell counts. After the analysis and nuclear staining, the XFp microplate was transferred to the Cytation 5, and the nuclear images were captured, the individual nuclei were identified and counted by BioTek Gen5 software. Data were expressed as pmol of O2 per minute and normalized by nuclear staining and baselined to pre-compound addition.
Assay conditions were as stated below.
Assay specifics on assay conditions are indicated below when readouts were normalized to cell counts. […]

[2] = test system: monocyte-derived M1 macrophages; experiment: M1 differentiation assay (macrophage TNFα, IL6, IL10 ELISA, FACS); assay type: cell-based, human
Method: Monocytes were isolated by positive isolation with CD14+ microbeads (Miltenyi, 130-050-201). Monocytes were 99% viable and were 96% purity as analyzed by FACS and CD14+ (BD, 563561). 100,000 monocytes along with compounds at the dose of 10 and 50 μM were allowed to differentiate to macrophages with 10 ng/ml GMCSF (R&D, 15-GM-050/CF) in RPMI complete media (Invitrogen, 22400089) with 15% FBS (Hyclone SV30087.03) and 1% Penicillin-Streptomycin (Gibco, 15140-122). On day 2 and 4 half the media was refreshed with fresh GM-CSF and compounds at 10 and 50 μM dose. On day 6 the macrophages were matured with GMCSF, IFNγ (R&D 285-IF-100/CF) and LPS (Sigma, L6143) in the presence of 10 μM and 50 μM of compounds. After 24h, supernatant was collected for the measurement of TNFα (DKW, 1117202) IL6 (DKW, 1110602), IL10 (DKW, 1110003) by ELISA. Macrophages were detached gently on ice with EDTA (Invitrogen, 15575-038) and analyzed by FACS (BD LSR Fortessa, 853492). Cells were stained for live/dead dye, surface and intracellular markers with fixation/permeabilization solution (BD, 554714) and ALIVE/DEAD™ Fixable Near-IR Dead Cell Stain Kit (BD, L34976), mouse anti human CD86 APC (BD, 555660), mouse anti-human CD163 PE (BD, 556018), mouse anti-human CD68 FITC (BD, 562117) or isotype controls anti-mouse IgG1 κ PE (BD, 559320) and anti-mouse IgG1 κ APC (BD, Anti mouse IgG1 κ APC (BD, 55571). Mature M1 macrophages were defined as CD86+CD68+CD163− and increase in TNFα, IL6, and decrease in IL-10.

HepG2 cells = experiment: Glucose uptake (Glucose Uptake-Glo); assay type: cell-based; conditions: Homo sapiens, 50 uM, read-out: % increase in Glucose Uptake
[3] = test system: primary fibroblasts (healthy controls and PA, MMA, BCKDK, PDH, VLCAD, LS, PC, GA, VLCFA, KSS, FXN, HD); experiment: Measurement of ROS (H2DCFDA) in primary fibroblasts; assay type: cell-based, human; conditions: Homo sapiens, procedure Example 812, Assay Condition C
Method: Primary adherent fibroblasts were cultured in minimum essential medium (MEM) (Gibco, 25030081) supplemented with 2 mM L-Glutamine (Gibco, 25030081), 15% fetal bovine serum (FBS) (Gibco, 26400044) and 1% penicillin/streptomycin (Gibco, 5140122) at 37° C. and 5% CO2. Cells were collected for either passaging or experiment at ˜70-80% confluence. Cells were obtained by trypsinization and seeded in cell culture microplates either white plate (Thermo Fisher Scientific, 152028) for luminescent measurement or black plate (Thermo Fisher Scientific, 165305) for fluorescent based read out for different assays listed below. Cells were obtained by trypsinization and […] were seeded and allowed to adhere for 16-18 hours to have confluency around 70-80% in the cell well with culture media. After 24 hours prior to measurements (37° C., 5% CO2) media was changed to Dulbecco's Modified Eagle Medium (DMEM, Agilent Seahorse cat #103575-100) with the appropriate supplements as stated below.
Primary fibroblasts assayed were Healthy controls (GM00041, GM05659, GM23974 Coriell Institute for Medical Research), Propionic Acidemia (PA) (GM00371, GM03590 Coriell Institute for Medical Research, Tsi 6337 Trans-Hit Bio), Methylmalonic Acidemia (MMA) (GM01673, Coriell Institute for Medical Research, Tsi 5224, Tsi 4290 Trans-Hit Bio), Branched chain ketoacid dehydrogenase kinase (BCKDK) (GM00612, GM00649 Coriell Institute for Medical Research), Subnormal activation of pyruvate dehydrogenase complex (PDH) (GM01503 Coriell Institute for Medical Research), Very long-chain acyl-CoA dehydrogenase (VLCAD) (GM17475), Leigh Syndrome (LS) (GM03672, GM13411 Coriell Institute for Medical Research), Pyruvate Carboxylase Deficiency (PC) (GM00444 Coriell Institute for Medical Research), Glutaric Acidemia-I (GA), Impaired VLCFA oxidation (VLCFA) (GM13262), Kearns-Sayre Syndrome (KSS) (GM06225 Coriell Institute for Medical Research), Friedreich's Ataxia (FXN), Huntington's disease (HD) (GM21756 Coriell Institute for Medical Research). Next, cells were treated with compounds (10 μM) and ROS H2DCFDA (22 μM) dye for 2 hours in PA, MMA lines and for 24h for the other fibroblast lines. Kinetic read was started immediately with a i3x plate reader (492/527 nm) for 60 minutes.
A total dead cell count was performed as described in Example 817 and only alive cells were used for analysis.

[4] = test system: Propionic Acidemia (PA) primary fibroblasts GM00371; experiment: Mitochondrial respiration, XFe96 Extracellular Flux Analyzer (OCR/ECAR), PA fibroblasts GM00371; assay type: cell-based; conditions: Homo sapiens, Fibroblast, assay condition C (10 mM glucose, 10% FBS), 50 μM, read-out: Increase in Maximal Respiratory Capacity AUC
[5] = MMA Tsi 5224, assay condition D (1 mM glucose, 10% FBS), read-out: Increase in Maximal Respiratory Capacity AUC
[6] = FXN GM04078, read-out: Decreased ROS by at least 10%
[7] = MMA Tsi 5224, assay condition A (10 mM glucose, 2 mM L-glutamine, 1 mM pyruvate, 10% FBS), read-out: Increase in Maximal Respiratory Capacity AUC
[8] = FXN GM04078, read-out: Decreased ROS by at least 30%
[9] = Fibroblast, PC GM00444, read-out: Decreased ROS by at least 10%
[10] = Fibroblast, PC GM00444, read-out: Decreased ROS by at least 30%

Structure (SMILES): COC(=O)[C@@H](N)CC(=O)SCCNC(=O)CCNC(=O)[C@H](O)C(C)(C)CO [Compound 415]
- activation at 10 µM ([1]; MMA Tsi 5224, assay condition D (1 mM glucose, 10% FBS), read-out: Increase in Spare Capacity AUC): ≥ 10%
- % decrease in Live Macrophage Cells ([2]; 50 uM): ≥20%
- activation at 10 µM ([2]; Homo sapiens, Macrophage, 10 uM, read-out: % Increase in IL-10 Secretion): ≥ 30%
- inhibition at 10 µM ([2]; Homo sapiens, Macrophage, 10 uM, read-out: % decrease in Macrophage IL-6 Secretion): ≥ 30%
- inhibition at 10 µM ([2]; Homo sapiens, Macrophage, 10 uM, read-out: % decrease in Macrophage TNFα Secretion): ≥ 30%

Structure (SMILES): CC(=O)OCC(C)(C)[C@@H](OC(C)=O)C(=O)NCCC(=O)NCCS [Compound 1263, (1R)-3-(acetyloxy)-2,2-dimethyl-1-([2-[(2-sulfanylethyl)carbamoyl]ethyl]carbamoyl)propyl acetate]
- activation at 50 µM (HepG2 cells): ≥ 30%

Structure (SMILES): COC(=O)CC(SCCNC(=O)CCNC(=O)[C@H](O)C(C)(C)COP(=O)(O)O)C(=O)OC (stereo partly drawn) [Compound 86, dimethyl 2-((2-(3-((R)-2-hydroxy-3,3-dimethyl-4-(phosphonooxy)butanamido)propanamido)ethyl)thio)succinate]
- activation at 10 µM [1, 5]: ≥ 10%
- % Increase in Live Macrophage Cells ([2]; 10 uM): ≥20%

Structure (SMILES): CC(C)(C)OC(=O)N[C@@H](CC(=O)SCCNC(=O)CCNC(=O)[C@H](O)C(C)(C)CO)C(=O)OC(C)(C)C [Compound 1318]
- activation at 10 µM ([1]; MMA Tsi 5224, assay condition B (1 mM glucose, 2 mM L-glutamine, 1 mM pyruvate, 10% FBS), read-out: Increase in Spare Capacity AUC): ≥ 10%

Structure (SMILES): CC(O)CC(=O)CC(=O)CC(=O)SCCNC(=O)CCNC(=O)[C@H](O)C(C)(C)CO (stereo partly shown) [Compound 379]
- inhibition at 10 µM [3, 6]: ≥ 10%

Structure (SMILES): CC(C)(COC(=O)CCC(=O)O)[C@@H](O)C(=O)NCCC(=O)NCCSC(=O)CCC(=O)O [Compound 1232]
- activation at 10 µM [1, 7]: ≥ 10%
- activation at 10 µM [1, 5]: ≥ 10%
- inhibition at 10 µM ([3]; Fibroblast, VLCFA GM13262, read-out: Decreased ROS by at least 10%): ≥ 10%
- inhibition at 10 µM ([3]; Fibroblast, VLCFA GM13262, read-out: Decreased ROS by at least 30%): ≥ 30%
- inhibition at 10 µM [3, 6]: ≥ 10%
- inhibition at 10 µM [3, 8]: ≥ 30%

Structure (SMILES): COC(=O)C(=O)SCCNC(=O)CCNC(=O)[C@H](O)C(C)(C)CO [Compound 30, Methyl (R)-2-((2-(3-(2,4-dihydroxy-3,3-dimethylbutanamido)propanamido)ethyl)thio)-2-oxoacetate]
- activation at 10 µM [1, 7]: ≥ 10%

Structure (SMILES): COC(=O)CCC(=O)CC(=O)SCCNC(=O)CCNC(=O)[C@H](O)C(C)(C)CO [Compound 5, methyl 6-[(2-[3-[(2R)-2,4-dihydroxy-3,3-dimethylbutanamido]propanamido]ethyl)sulfanyl]-4,6-dioxo-hexanoate]
- activation at 50 µM [4]: ≥ 10%

Structure (SMILES): COC(=O)[C@@H](N)CCC(=O)SCCNC(=O)CCNC(=O)[C@H](O)C(C)(C)CO [Compound 412, methyl (2S)-2-amino-5-[(2-[3-[(2R)-2,4-dihydroxy-3,3-dimethylbutanamido]propanamido]ethyl)sulfanyl]-5-oxopentanoate]
- inhibition at 10 µM [3, 9]: ≥ 10%
- inhibition at 10 µM [3, 10]: ≥ 30%
- inhibition at 10 µM [3, 6]: ≥ 10%
- inhibition at 10 µM [3, 8]: ≥ 30%

Structure (SMILES): CC(=O)C(C)C(=O)SCCNC(=O)CCNC(=O)[C@H](O)C(C)(C)CO (stereo partly drawn) [Compound 396, (2R)-2,4-dihydroxy-3,3-dimethyl-N-[2-([2-[(2-methyl-3-oxobutanoyl)sulfanyl]ethyl]carbamoyl)ethyl]butanamide]
- activation at 50 µM [4]: ≥ 10%
- inhibition at 10 µM [3, 9]: ≥ 10%
- inhibition at 10 µM [3, 10]: ≥ 30%

Source: patent publication US20230107216A1, “PANTETHEINE DERIVATIVES AND USES THEREOF” (Comet Therapeutics, Inc., priority 2018, published 2023)
